Usually AUC(0-t) stands for the area under the concentration-time curve up to a stated or last time point. Usually Cmax stands for the highest concentration seen after dosing. A word on the MRT: it is the average time that molecules of a dose stay in the body. The term Tmax denotes the time at which the peak concentration occurs. What is called half-life is how long it takes for the measured level to halve. High values mean slow decline, low ones rapid decline.

The source of these data is patent US12440454B2, “Pharmaceutical compositions containing hemp extract for administration to felines and related methods” (Portland Technology Holdings LLC, priority 2022, dated 2025).

Data set [1] can be described thus: 24 hour pharmacokinetic analysis of serum cannabinoids after oral CBD/CBDA rich hemp paste. Particulars: for Css Ave (calculated predicted 5 half-life mean serum concentration): predicted steady state from one compartment model; for detectability in serum of cats at any time point: 24 hour PK. The source says: (§1) Eight cats from a contract research laboratory (Summit Ridge Farms, Gibson, PA) were utilized for this experiment. 4 spayed female cats and 4 neutered male cats were used. […] The cat population ranged from 4.1 kg to 5.4 kg (mean weight 4.7 kg). An initial dosage of 1 g of paste was fed to each cat at zero hours. Additionally, and after the initial 24-hour pharmacokinetic assessment, treatment with 1 g of paste resumed on the next day for 6 days, twice daily at 7 am and 4 pm each day. […] Cats were fed their normal daily meal approximately 1 hour after oral paste consumption. The base of the paste was a proprietary mix of soy oil, dextrose, dried chicken liver, silica, inulin, polysorbate 60, potassium sorbate, sorbic acid, saccharin, mixed tocopherols, methylparaben, propylparaben in descending order of volume with 15% cannabinoid rich hemp oil emulsified with the product. Prior to enrollment all cats involved in the study were deemed healthy and normal based on physical examination, complete blood count and serum chemistry assessment. During the 1-week trial examination of all cats were assessed at the 1 and 4 hour time point after morning dosing. The assessment included examination for physical abnormalities and examination for adverse events including diarrhea, vomiting, lethargy, somnolence, ataxia, or abnormal behavior within the colony during treatment. Regarding the 24 hour pharmacokinetic study, two milliliters of blood was drawn via jugular venipuncture for all 8 cats prior to the initial dose and then again at 0.5, 1, 2, 4, 8 and 24 hours for a 7 point pharmacokinetic analysis. Complete blood counts, serum chemistry and serum cannabinoid concentrations were performed before the initial treatment and at the end of day 7 treatment, 6 hours after the morning treatment. Complete blood count data included white blood cells (WBC), hematocrit, hemoglobin, red blood cells (RBC), neutrophils, lymphocytes, platelets, monocytes, eosinophils, basophils). Serum biochemistry analyses included sodium, potassium, chloride, magnesium, calcium, phosphorus, albumin, total protein, globulin, urea nitrogen, creatinine, alkaline phosphatase (ALP), alanine aminotransferase (ALT), aspartate amino transferase (AST), cholesterol, total bilirubin, glucose and gamma glutamyl transferase (GGT) with a focus of this report being renal and hepatic parameters. All blood parameters measured were performed at the Cornell University Diagnostic Laboratory.
(§2) Analysis was performed using an exploratory (fit-for-purpose) method for fast measurement of thirteen cannabinoids and their metabolites at the Toxicology Research Laboratory, University of Illinois at Chicago.
Cat serum (40 μL) was mixed with 20 μL of internal standards [100 ng/mL of CBD-d3, THC-d3, THCA-d3, 7-COOH-CBD-d3, 7-OH-CBD-d5, 11-OH-THC-d3, COOH-THC-d9, and COOH-THC-Glu-d3 in water:methanol (50:50)] in a 96 well plate. Proteins were precipitated and compounds were extracted by adding 100 μL of ice-cold acetonitrile to the samples, then vortexing for 1-2 minutes and centrifuging at 4,000 rpm for 10 minutes at 4° C. Supernatants (70 μL) were mixed with 70 μL of water in a different 96 well plate, and centrifuged again. […] The column was equilibrated with mobile phase A (0.1% formic acid in water) and mobile phase B (acetonitrile) at 50% B. The compounds were eluted by a linear gradient from 50% B to […] over 6 minutes, and then held at 95% B for 1 minute. Subsequently, the column was re-equilibrated at initial composition for 1 minute at a flow rate of 0.3 mL/min. The autosampler and column temperature were set a 4 and 30° C., respectively. The compounds were detected in electrospray ionization positive and/or negative mode.

A short description of data set [2]: Serum cannabinoid concentrations after one week of twice daily dosing (day 7, 6 hours post morning dose) compared with predicted steady state. Particulars: Student T-test.
Text: as §1, §2
Cat serum (40 μL) was mixed with 20 μL of internal standards [100 ng/mL of CBD-d3, THC-d3, THCA-d3, 7-COOH-CBD-d3, 7-OH-CBD-d5, 11-OH-THC-d3, COOH-THC-d9, and COOH-THC-Glu-d3 in water:methanol (50:50)] in a 96 well plate. Proteins were precipitated and compounds were extracted by adding 100 μL of ice-cold acetonitrile to the samples, then vortexing for 1-2 minutes and centrifuging at 4,000 rpm for 10 minutes at 4° C. Supernatants (70 μL) were mixed with 70 μL of water in a different 96 well plate, and centrifuged again. […] The compounds were detected in electrospray ionization positive and/or negative mode.

[3] abbreviates: both, in vivo, po, 1 g of paste.
Setting [4] is: cats, single oral 1 g paste, serum, 0-24 h, mean ± SD.
[5] abbreviates: cats, single oral 1 g paste, serum, mean ± SD.
Where [6] appears, read: both, cat, in vivo, po, 1 g of paste.

For `CCCCCc1cc(O)c(C/C=C(\C)CCC=C(C)C)c(O)c1C(=O)O` [CBGA, cannabigerolic acid], in data set [1] (setting [3]), the AUC(0-t) turned out to be 34.1 ± 9.5 ng·h/mL, the Cmax turned out to be 19.7 ± 5.5 ng/mL, the MRT stood at 1.5 ± 0.2 h and the Tmax was 1 ± 0.2 h. This molecule also showed a half-life in data set [1] (setting [3]) of 0.7 ± 0.1 h. For the same molecule, the “Css Ave (calculated predicted 5 half-life mean serum concentration)” value in data set [1] (cats, mean ± SD) is 4.8 ± 1.3 ng/mL. Moreover, in data set [2], the “predicted steady state (Css Ave) versus actual serum concentration” value is “predicted concentration was higher than the actual concentration”.

In the case of `CCCCCc1cc2c(c(O)c1C(=O)O)C1C=C(C)CCC1C(C)(C)O2` (centres unmarked) [THCA, Δ9-tetrahydrocannabinolic acid], the “Css Ave (calculated predicted 5 half-life mean serum concentration)” value in data set [1] (cats, mean ± SD) was 43.3 ± 13.9 ng/mL. In data set [1] (setting [4]), this molecule returned an AUC(0-t) of 434.0 ± 229.1 ng·h/mL. In data set [1] (setting [5]), the Cmax was found to be 87.9 ± 34.0 ng/mL, the MRT is recorded as 5.5 ± 2.1 h, the T1/2 el is 3.8 ± 1.3 h and the Tmax is listed as 2 ± 0.9 h. Besides, in data set [2], the “predicted steady state (Css Ave) versus actual serum concentration” value is reported as “no different”.

For `CCCCCc1cc(O)c2c(c1)OC(C)(C)[C@H]1CCC(C(=O)O[C@@H]3O[C@H](C(=O)O)[C@@H](O)[C@H](O)[C@H]3O)=C[C@H]21` [COOH-THC-glu, COOH-glucuroniated tetrahydrocannabinol], in data set [1] (cats, serum), the “detectability in serum of cats at any time point” value (shortened to “detectability in serum of cats”) is on record as “either below the detectable limit for the analyte or less than half of the population showed any appreciable concentration”.

On to `CCCCCc1cc(O)c(C/C=C(\C)CCC=C(C)C)c(O)c1` [CBG, cannabigerol], for which, in data set [1] (both, in vivo, po), the AUC(0-t) is 11.4 ± 2.8 ng·h/mL, the concentration peaked (Cmax) at 4.35 ± 1 ng/mL, the MRT came to 2.3 ± 0.1 h and the Tmax was found to be 2 h. The molecule also showed a half-life in data set [1] (both, in vivo, po) of 0.9 ± 0.1 h.

Take `C=C(C)[C@@H]1CCC(C)=C[C@H]1c1c(O)cc(CCCCC)c(C(=O)O)c1O` [CBDA, cannabidiolic acid]: the Cmax in data set [1] (setting [6]) is 1010 ng/mL. In addition, in data set [1] (setting [3]), the area under the curve AUC(0-t) was found to be 2640 ± 1280 ng·h/mL, the maximum concentration (Cmax) is 1010 ± 495 ng/mL and the Tmax was 1.6 ± 1.1 h. In addition, the “Css Ave (calculated predicted 5 half-life mean serum concentration)” value in data set [1] (cats, mean ± SD) was 204.5 ± 87.8 ng/mL. In data set [2], the “predicted steady state (Css Ave) versus actual serum concentration” value is recorded as “predicted concentration was higher than the actual concentration”.

The molecule `C=C(C)[C@@H]1CCC(C)=C[C@H]1c1c(O)cc(CCCCC)cc1O` [CBD, cannabidiol, reference compound] came in with a Cmax in data set [1] (setting [6]) of 282 ng/mL. Besides, in data set [1] (setting [3]), the AUC(0-t) came to 908 ± 528 ng·h/mL, the Tmax came out at 2 h and the half-life was 2.1 ± 1.1 h. In addition, the “Css Ave (calculated predicted 5 half-life mean serum concentration)” value in data set [1] (cats, mean ± SD) is 102.1 ± 46.3 ng/mL. The “predicted steady state (Css Ave) versus actual serum concentration” value in data set [2] was “predicted concentration was higher than the actual concentration”.

As to `CCCCCc1cc(O)c2c(c1)OC(C)(C)[C@@H]1CCC(C(=O)O)=C[C@@H]21` [COOH-THC, COOH-tetrahydrocannabinol], the “detectability in serum of cats” value in data set [1] (cats, serum) is recorded as “either below the detectable limit for the analyte or less than half of the population showed any appreciable concentration”.

For the molecule `C=C(C)[C@@H]1CCC(CO)=C[C@H]1c1c(O)cc(CCCCC)cc1O` [7-OH-CBD, 7-OH-cannabidiol], the “detectability in serum of cats” value in data set [1] (cats, serum) is “either below the detectable limit for the analyte or less than half of the population showed any appreciable concentration”. Also, the “cats showing no detectable concentrations of this metabolite” value in data set [1] (of the 8 cats, serum) is 5.

On to `CCCCCc1cc(O)c2c(c1)OC(C)(C)c1ccc(C)cc1-2` [CBN, cannabinol], for which the “detectability in serum of cats” value in data set [1] (cats, serum) is listed as “either below the detectable limit for the analyte or less than half of the population showed any appreciable concentration”.

Turning to `CCCCCc1cc(O)c2c(c1)OC(C)(C)[C@@H]1CCC(CO)=C[C@@H]21` [11-OH-THC, 11-OH-tetrahydrocannabinol], in data set [1] (cats, serum), the “detectability in serum of cats” value is “either below the detectable limit for the analyte or less than half of the population showed any appreciable concentration”.

On to `C=C(C)[C@@H]1CCC(C(=O)O)=C[C@H]1c1c(O)cc(CCCCC)cc1O` [7-COOH-CBD, 7-COOH cannabidiol], for which the “detectability in serum of cats” value in data set [1] (cats, serum) is listed as “found in all cats”.

In the case of `CCCCCc1cc(O)c2c(c1)OC(C)(C)[C@@H]1CCC(C)=C[C@@H]21` [THC, Δ9-tetrahydrocannabinol, reference compound], in data set [1] (cats, mean ± SD), the “Css Ave (calculated predicted 5 half-life mean serum concentration)” value is 11.9 ± 5.2 ng/mL. For the same molecule, the “detectability in serum of cats” value in data set [1] (cats, serum) was “either below the detectable limit for the analyte or less than half of the population showed any appreciable concentration”. In addition, the AUC(0-t) in data set [1] (setting [4]) came out at 156.5 ± 65.8 ng·h/mL. Besides, in data set [1] (setting [5]), the Cmax was determined as 40.9 ± 12.9 ng/mL, the MRT is 3.7 ± 0.4 h, the T1/2 el was found to be 1.6 ± 0.4 h and the Tmax turned out to be 2 ± 0 h. Also, in data set [2], the “predicted steady state (Css Ave) versus actual serum concentration” value is “predicted concentration was higher than the actual concentration”.

As to `CCCCCc1cc(O)c2c(c1)OC(C)(CCC=C(C)C)C=C2` (centres unmarked) [CBC, cannabichromene], the “detectability in serum of cats” value in data set [1] (cats, serum) is reported as “either below the detectable limit for the analyte or less than half of the population showed any appreciable concentration”.
